Test results reported in patent US8318657B2, “Methods and compositions for preventing and/or treating pancreatitis” (Flinders Technologies Pty Ltd., priority 2005, dated 2012).
“Also recorded” adds a separate entry of the source.

Experiments:
[1] = tested on: mice without acute pancreatitis; test: Control groups: mice given galanin or galanin antagonist alone (saline, no caerulein); settings: mice without AP
[2] = tested on: possum model of acute pancreatitis (AP); test: Possum model of acute pancreatitis (pancreatic duct ligation + CCK/secretin) with galanin or galantide; type: in vivo, Australian Brush-tailed possums (Trichosurus vulpecula); settings: for plasma amylase activity / plasma lipase activity / pancreatic vascular perfusion (PVP) / pancreatic oedema: possum AP; for pancreatic oedema: pancreas harvested 8 hours post-AP induction, H&E, point counting, treatment from 15 minutes prior to AP induction, decrease of AP-induced oedema
[3] = tested on: hyperstimulated pancreatic exocrine secretion; test: Hyperstimulated (CCK/secretin) pancreatic exocrine secretion in anaesthetised possums; type: in vivo, Australian Brush-tailed possums (Trichosurus vulpecula); settings: CCK/secretin 5 ug/kg of each/hour i.v., galanin 0.5 or galantide 1.5 nmol/kg bolus then 2 nmol/kg/h, decrease of elevated volume, preliminary study
Protocol: The experimental setup was similar to as described above. In the control group after an initial stabilization period of 15 minutes, the pancreatic juice was collected at half hourly intervals for one hour. This established the basal secretion rate. Then a mixture of cholecystokinin and secretin (CCK-SEC) was infused i.v at 5 μg (of each peptide)/kg/hr for the entire duration of the experiment.
The galanin or galantide infusion was continued for one and a half hour and then stopped. The CCK-SEC infusion was further continued for one hour. During the entire course of experiment, pancreatic juice was collected at half hourly intervals.
(§1) The quantity of pancreatic exocrine secretion was estimated gravimetrically (basal secretion and stimulated secretion).

[4] = tested on: caerulein-induced acute pancreatitis (AP) in mice; test: Caerulein-induced acute pancreatitis in mice (mild model, 7 hourly i.p. injections) with galanin or galanin antagonists; type: in vivo, mouse (female Balb C or Swiss); settings: for pancreatic acinar cell necrosis score: histology scoring system
[5] = tested on: basal pancreatic exocrine secretion; test: Basal pancreatic exocrine secretion in anaesthetised possums; type: in vivo, Australian Brush-tailed possums (Trichosurus vulpecula); settings: galanin 0.5 or galantide 1.5 nmol/kg bolus then 2 nmol/kg/h i.v., preliminary study
Protocol: The possums were anaesthetized as described above. The left femoral vein was cannulated with two cannulae (1.05 mm OD, 0.35 ID) for administration of anaesthetic drugs and normal saline. […] A midline laparotomy was then performed. With minimal handling of tissues, the duodenum with the sphincter of Oddi was placed on a platform and stabilised with pins. The pancreatic duct component of the sphincter of Oddi was identified with the aid of a dissecting microscope and opened with micro-scissors. It was then cannulated (1.5 mm OD, 0.9 mm ID) advanced 4-5 mm and ligated with 5-0 prolene suture. This cannula was left open to collect pancreatic juice. After an initial stabilization period of 15 minutes, the pancreatic juice was collected every 30 minutes for 3.5 hours.
as §1

[6] = GT 1.5 nmol/kg bolus then 2 nmol/kg/h i.v., delayed: initiated 2 hours post-AP induction
[7] = GT 1.5 nmol/kg bolus then 2 nmol/kg/h i.v., delayed: initiated 2 hours post-AP induction, listed as GT
[8] = i.v. bolus (GL 0.5, GT 1.5 nmol/kg) then 2 nmol/kg/h continuous infusion, initiated 15 minutes prior to AP induction, effect on AP-induced rise
[9] = i.v. bolus (GL 0.5, GT 1.5 nmol/kg) then 2 nmol/kg/h continuous infusion, initiated 15 minutes prior to AP induction, effect on AP-induced rise, listed as GT
[10] = mouse caerulein AP, 20 nmol/kg i.p. with each caerulein injection, reduction of AP-induced level
[11] = mouse caerulein AP, 40 nmol/kg i.p. with each caerulein injection, reduction of AP-induced level
[12] = mouse caerulein AP, GT 40 nmol/kg, treatment delayed for 2 hours post-AP induction

CSCC[C@H](NC(=O)[C@H](CC(C)C)NC(=O)CNC(=O)[C@H](Cc1ccccc1)NC(=O)[C@H](Cc1ccccc1)NC(=O)[C@H](CCC(N)=O)NC(=O)[C@H](CCC(N)=O)NC(=O)[C@@H]1CCCN1C(=O)CNC(=O)[C@H](CC(C)C)NC(=O)[C@H](CC(C)C)NC(=O)[C@H](Cc1ccc(O)cc1)NC(=O)CNC(=O)[C@H](C)NC(=O)[C@H](CO)NC(=O)[C@H](CC(N)=O)NC(=O)[C@H](CC(C)C)NC(=O)[C@@H](NC(=O)[C@H](Cc1c[nH]c2ccccc12)NC(=O)CN)[C@@H](C)O)C(N)=O [Galantide, Galanin(1-13)-substance P(5-11) amide]
pancreatic myeloperoxidase (MPO) activity ([1]; 20 nmol/kg alone): did induce a low level of pancreatic MPO | pancreatic tissue architecture (histological sections) ([1]; 20 nmol/kg alone): near normal pancreatic architecture | plasma amylase activity ([1]; 20 nmol/kg alone, vs baseline): did not increase plasma amylase activity above baseline activity | plasma lipase activity ([1]; 20 nmol/kg alone, vs baseline): did not increase plasma lipase activity above baseline activity | pancreatic myeloperoxidase (MPO) activity ([1]; 40 nmol/kg alone): did induce a low level of pancreatic MPO | plasma amylase activity [2, 6]: reduces plasma amylase and lipase secretion | plasma lipase activity [2, 6]: reduces plasma amylase and lipase secretion | plasma amylase activity [2, 7]: reduced the AP-induced rise in plasma amylase activity | plasma lipase activity [2, 7]: suppressed the AP-induced rise in plasma lipase activity | pancreatic vascular perfusion (PVP) ([2]; i.v. bolus (GL 0.5, GT 1.5 nmol/kg) then 2 nmol/kg/h continuous infusion, initiated 15 minutes prior to AP induction): increases PVP from the outset | plasma amylase activity [2, 8]: completed prevented the pancreatitis-induced increase in plasma amylase | plasma lipase activity [2, 8]: markedly depressed the pancreatitis-induced increase in plasma lipase | plasma amylase activity [2, 9]: completely suppressed the AP-induced rise in plasma amylase activity | plasma lipase activity [2, 9]: markedly suppressed the AP-induced rise in plasma lipase activity | pancreatic vascular perfusion (PVP) ([2]; i.v. bolus (GL 0.5, GT 1.5 nmol/kg) then 2 nmol/kg/h continuous infusion, initiated 15 minutes prior to AP induction, listed as GT): sustained fall in PVP | pancreatic oedema [2]: reduced | pancreatic oedema ([2]; listed as GT): significantly decreased | severity of pancreatitis (summary) ([2]; possums, administration prior to the onset and also after onset of acute pancreatitis): reduces the severity of pancreatitis | hyperstimulated pancreatic exocrine secretion (volume of pancreatic juice) [3]: does reduce hyper-stimulated exocrine secretion | hyperstimulated pancreatic exocrine secretion (volume of pancreatic juice) ([3]; listed as galantide): decreased | pancreatic myeloperoxidase (MPO) activity ([4]; mouse caerulein AP, 10 nmol/kg i.p. with each caerulein injection, reduction of AP-induced level, listed as GT): also effective; also recorded: significantly reduced | pancreatic tissue architecture / AP-induced pancreatic damage (histological sections) ([4]; mouse caerulein AP, 20 nmol/kg): reduced the acute pancreatitis-induced pancreatic damage | pancreatic myeloperoxidase (MPO) activity [4, 10]: significantly reduced | plasma amylase activity [4, 10]: reduced the plasma amylase level | plasma lipase activity [4, 10]: significantly reduced | plasma amylase activity ([4]; mouse caerulein AP, 20 nmol/kg i.p. with each caerulein injection, reduction of AP-induced level, listed as GT): significantly reduced | pancreatic acinar cell necrosis score ([4]; mouse caerulein AP, 20 nmol/kg): reduced the pancreatitis-induced necrosis | pancreatic acinar cell necrosis score ([4]; mouse caerulein AP, 20 nmol/kg, listed as GT): significantly reduced the necrosis score | histology score (pancreatic tissue damage) ([4]; mouse caerulein AP, 20 nmol/kg, scoring system): significantly reduced the histology score | plasma amylase activity [4, 11]: reduced the plasma amylase level | plasma lipase activity [4, 11]: significantly reduced | plasma amylase activity ([4]; mouse caerulein AP, 40 nmol/kg i.p. with each caerulein injection, reduction of AP-induced level, listed as GT): significantly reduced | pancreatic myeloperoxidase (MPO) activity ([4]; mouse caerulein AP, 40 nmol/kg i.p. with each caerulein injection, vs AP alone): significantly reduced | plasma amylase activity [4, 12]: significantly reduced | plasma lipase activity [4, 12]: significantly reduced | pancreatitis-induced plasma hyperenzymemia ([4]; mouse caerulein AP, galantide administered 2 hours post pancreatitis onset, preliminary results): reduces the pancreatitis-induced plasma hyperenzymemia | severity of pancreatitis (summary) ([4]; mouse pancreatitis studies): has the ability to reduce the severity of pancreatitis | basal rate of pancreatic exocrine secretion (volume) [5]: does not influence basal exocrine secretion (volume)
